Test results from patent US20080108085A1 (priority 2001, published 2008).
Read-outs that look alike come from different tables or passages of the source.

System: surface-bound mouse prions (RML)
Details: for Incubation time s.d. / Sick/total: Table 4, infectious wires treated: sodium hydroxide 1M 1 h, formaldehyde 10% 1 h, guanidinium thiocyanate 4M 16 h, 25° C.; for Infectivity of treated prion-coated wires: sodium hydroxide 1 M 1 h, guanidinium thiocyanate 4 M 16 h, formaldehyde 10%

Compound | Incubation time s.d. [days] | Sick/total | Incubation time s.d. (listed as formaldehyde) [days] | Infectivity of treated prion-coated wires
C=O [Formaldehyde] | 92 ± 8 | 6/6 | 92 ± 8 | 
N#CS.N=C(N)N [Guanidinium thiocyanate] | >260 | 0/6 |  | completely non-infectious
[Na+].[OH-] [Sodium hydroxide] | >260 | 0/6 |  | completely non-infectious
